The supplement of paper PMC10307832

Experiments:
Assay in all cases: relative viability (nuclei count vs DMSO), 5 days (fraction); higher = more cells survive
[1] = compound: CC1=C(C(=O)N2C=CSC2=N1)CCN3CCC(=C(C4=CC=CC=C4)C5=CC=C(C=C5)F)CC3 + CCNC(=O)c1noc(-c2cc(C(C)C)c(O)cc2O)c1-c1ccc(CN2CCOCC2)cc1 [Luminespib] (partner 0.01 µM)
Procedure, shortened: (§1)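 Values are medians from duplicate plates. Each reflects relative viability, defined as the nuclei count of treated wells over that of vehicle wells. Lung cancer cell lines in 1536-well plates were pin-tool dosed one day after seeding with one drug alone or with a fixed anchor-drug dose plus five library-drug doses (not always all listed) in √10 steps, then fixed, stained and imaged at 4× after 5 days.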

[2] = compound: CC1=C(C(=O)N2C=CSC2=N1)CCN3CCC(=C(C4=CC=CC=C4)C5=CC=C(C=C5)F)CC3 + CS(=O)(=O)CCNCc1ccc(-c2ccc3ncnc(Nc4ccc(OCc5cccc(F)c5)c(Cl)c4)c3c2)o1 [Lapatinib] (partner 2 µM)
Procedure, shortened: as §1

[3] = compound: CC1=C(C(=O)N2C=CSC2=N1)CCN3CCC(=C(C4=CC=CC=C4)C5=CC=C(C=C5)F)CC3 + Nc1ncn([C@H]2C[C@H](O)[C@@H](CO)O2)c(=O)n1 [Decitabine] (partner 2 µM)
Procedure, shortened: as §1

[4] = compound: CC1=C(C(=O)N2C=CSC2=N1)CCN3CCC(=C(C4=CC=CC=C4)C5=CC=C(C=C5)F)CC3 + O=C(c1cc(Cc2n[nH]c(=O)c3ccccc23)ccc1F)N1CCN(C(=O)C2CC2)CC1 [Olaparib] (partner 8 µM)
Procedure, shortened: as §1

Cell Line | relative viability ([1]; first compound 0.08 µM) | relative viability ([1]; first compound 0.253 µM) | relative viability ([1]; first compound 0.8 µM) | relative viability ([1]; first compound 2.53 µM) | relative viability ([1]; first compound 8 µM) | relative viability ([2]; first compound 0.08 µM) | relative viability ([2]; first compound 0.253 µM) | relative viability ([2]; first compound 0.8 µM) | relative viability ([2]; first compound 2.53 µM) | relative viability ([2]; first compound 8 µM) | relative viability ([3]; first compound 0.08 µM) | relative viability ([3]; first compound 0.253 µM) | relative viability ([3]; first compound 0.8 µM) | relative viability ([3]; first compound 2.53 µM) | relative viability ([3]; first compound 8 µM) | relative viability ([4]; first compound 0.08 µM) | relative viability ([4]; first compound 0.8 µM) | relative viability ([4]; first compound 2.53 µM) | relative viability ([4]; first compound 8 µM) | relative viability ([4]; first compound 0.253 µM)
UMC-11 | 1.18 | 1.05 | 1.07 | 1.11 | 0.786 | 0.999 | 0.745 | 0.86 | 1.21 | 0.821 | 0.591 | 0.714 | 0.58 | 0.633 | 0.53 | 0.44 | 1.05 | 0.307 | 0.342 | 
SW 1573 | 0.155 | 0.189 | 0.215 | 0.245 | 0.227 | 1.26 | 1.2 | 1.05 | 1.27 | 1.06 | 0.453 | 0.524 | 0.505 | 0.633 | 0.447 | 0.502 | 0.465 | 0.625 | 0.357 | 0.323
SK-LU-1 | 0.228 | 0.217 | 0.192 | 0.21 | 0.184 | 0.675 | 0.918 | 1.05 | 1.07 | 0.62 | 0.593 | 0.555 | 0.709 | 0.615 | 0.535 | 0.442 | 0.459 | 0.429 | 0.402 | 0.45
201T | 1.02 | 1.1 | 1.06 | 1.05 | 0.966 | 1.12 | 1.08 | 0.999 | 1.09 | 1.11 | 0.884 | 0.89 | 0.845 | 0.9 | 0.804 | 0.941 | 0.824 | 0.92 | 0.884 | 0.791
EPLC-272H | 0.276 | 0.227 | 0.197 | 0.423 | 0.268 |  | 0.921 | 0.809 | 1.09 | 0.873 | 0.431 | 0.312 | 0.37 | 0.396 | 0.376 | 0.693 | 0.911 | 0.758 | 0.742 | 
NCI-H1651 | 1.04 | 0.943 | 1.07 | 1.04 | 0.588 | 0.876 | 0.759 | 0.912 | 1.02 | 0.514 | 0.644 | 0.604 | 0.587 | 0.597 | 0.526 | 0.165 | 0.189 | 0.217 | 0.183 | 0.176
LK-2 | 0.154 | 0.21 | 0.186 | 0.191 | 0.162 | 0.764 | 0.772 | 1.01 | 0.903 | 0.633 | 0.316 | 0.226 | 0.341 | 0.339 | 0.248 | 0.726 | 0.736 | 0.756 | 0.514 | 0.728
NCI-H1944 | 0.782 | 0.926 | 0.751 | 0.775 | 0.584 | 1.1 | 0.904 | 0.773 | 1.1 | 0.898 | 0.462 | 0.43 | 0.413 | 0.433 | 0.417 | 0.422 | 0.38 | 0.383 | 0.359 | 0.446
NCI-H647 | 0.142 | 0.157 | 0.153 | 0.119 | 0.179 | 1.06 | 1.05 | 1.19 | 1.26 | 0.319 | 0.389 | 0.412 | 0.378 | 0.505 | 0.297 | 0.489 | 0.793 | 0.481 | 0.358 | 0.518
NCI-H2347 | 0.367 | 0.361 | 0.353 | 0.334 | 0.547 | 0.947 | 1.12 | 0.965 | 0.931 | 0.917 | 0.375 | 0.693 | 0.667 | 0.621 | 0.513 | 0.58 | 0.616 | 0.549 | 0.598 | 0.571
H3255 | 0.796 | 0.892 | 0.786 | 0.961 | 0.709 | 0.221 | 0.32 | 0.249 | 0.309 | 0.246 | 0.688 | 0.549 | 0.521 | 0.664 | 0.495 | 0.503 | 0.548 | 0.6 | 0.504 | 0.63
NCI-H1755 | 0.467 | 0.548 | 0.374 | 0.333 | 0.519 | 1.08 | 1.01 | 1.05 | 1.08 | 0.861 | 0.677 | 0.784 | 0.721 | 0.66 | 0.754 | 0.892 | 0.939 | 0.934 | 0.719 | 0.995
RERF-LC-KJ | 1.14 | 1.12 | 1.22 | 1.24 | 0.813 | 0.873 | 0.753 | 0.921 | 0.907 | 0.666 | 0.715 | 0.746 | 0.647 | 0.62 | 0.572 | 0.968 | 0.845 | 0.89 | 0.706 | 0.819
HCC-15 | 0.444 | 0.321 | 0.22 | 0.444 | 0.293 | 0.961 | 0.667 | 0.885 | 1.02 | 0.73 | 0.831 | 0.651 | 0.601 | 0.642 | 0.604 | 0.777 | 0.716 | 0.736 | 0.643 | 0.782
NCI-H1650 | 0.182 | 0.204 | 0.196 | 0.188 | 0.189 | 0.685 | 0.891 | 0.709 | 0.925 | 0.579 | 0.372 | 0.485 | 0.505 | 0.435 | 0.329 | 0.782 | 0.862 | 0.819 | 0.605 | 0.838
NCI-H650 | 0.573 | 0.827 | 0.951 | 0.877 | 0.683 |  | 0.883 | 0.838 | 1.03 | 0.646 | 0.342 | 0.363 | 0.339 | 0.319 | 0.274 | 0.44 | 0.345 | 0.412 | 0.352 | 0.363
